From the NIST ThermoML archive (doi:10.1021/je060271a)
Values joined by “and” are separate entries in the source; they are usually repeats but may differ in a detail not shown here. Equal values may be shown once.

Conditions: Liquid, Vibrating tube method

CCCC(=O)OCC(COC(=O)CCC)(COC(=O)CCC)COC(=O)CCC [pentaerythritol tetrabutyrate]
Conditions	mass density
323.15 K, 30112 kPa	1045 kg/m3
323.15 K, 30149 kPa	1045.1 kg/m3
323.15 K, 30193 kPa	1045.1 kg/m3
323.15 K, 30232 kPa	1045.2 kg/m3
323.15 K, 30562 kPa	1045.3 kg/m3
323.15 K, 30601 kPa	1045.3 kg/m3
323.15 K, 30640 kPa	1045.5 kg/m3
323.15 K, 30680 kPa	1045.4 kg/m3
323.15 K, 30730 kPa	1045.5 kg/m3
323.15 K, 30771 kPa	1045.5 kg/m3
323.15 K, 30818 kPa	1045.4 kg/m3
323.15 K, 30850 kPa	1045.6 kg/m3
323.15 K, 30881 kPa	1045.6 kg/m3
323.15 K, 30918 kPa	1045.7 kg/m3
323.15 K, 30948 kPa	1045.6 kg/m3
323.15 K, 30979 kPa	1045.6 kg/m3
323.15 K, 31009 kPa	1045.7 kg/m3
323.15 K, 31047 kPa	1045.6 kg/m3
323.15 K, 31079 kPa	1045.6 kg/m3
323.15 K, 31110 kPa	1045.6 kg/m3
323.15 K, 31146 kPa	1045.7 kg/m3
323.15 K, 31178 kPa	1045.9 kg/m3
323.15 K, 31209 kPa	1045.6 kg/m3
323.15 K, 31247 kPa	1045.7 kg/m3
323.15 K, 31278 kPa	1045.7 kg/m3
323.15 K, 31310 kPa	1045.8 kg/m3
323.15 K, 31347 kPa	1045.9 kg/m3
323.15 K, 31379 kPa	1045.9 kg/m3
323.15 K, 31411 kPa	1045.8 kg/m3
323.15 K, 31450 kPa	1045.8 kg/m3
323.15 K, 31481 kPa	1045.9 kg/m3
323.15 K, 31513 kPa	1045.9 kg/m3
323.15 K, 31546 kPa	1046 kg/m3
323.15 K, 31584 kPa	1045.9 kg/m3
323.15 K, 31616 kPa	1046 kg/m3
323.15 K, 31649 kPa	1046 kg/m3
323.15 K, 31690 kPa	1046 kg/m3
323.15 K, 31725 kPa	1046 kg/m3
323.15 K, 31758 kPa	1046 kg/m3
323.15 K, 31791 kPa	1046 kg/m3
323.15 K, 31830 kPa	1046.2 kg/m3
323.15 K, 31863 kPa	1046.2 kg/m3
323.15 K, 31896 kPa	1046.1 kg/m3
323.15 K, 31936 kPa	1046.2 kg/m3
323.15 K, 31970 kPa	1046.2 kg/m3
323.15 K, 32003 kPa	1046.3 kg/m3
323.15 K, 32043 kPa	1046.2 kg/m3
323.15 K, 32151 kPa	1046.3 kg/m3
323.15 K, 32179 kPa	1046.3 kg/m3
323.15 K, 32219 kPa	1046.4 kg/m3
323.15 K, 32253 kPa	1046.3 kg/m3
323.15 K, 32288 kPa	1046.4 kg/m3
323.15 K, 32328 kPa	1046.5 kg/m3
323.15 K, 32362 kPa	1046.4 kg/m3
323.15 K, 32403 kPa	1046.5 kg/m3
323.15 K, 32437 kPa	1046.5 kg/m3
323.15 K, 32472 kPa	1046.5 kg/m3
323.15 K, 32506 kPa	1046.5 kg/m3
323.15 K, 32548 kPa	1046.5 kg/m3
323.15 K, 32583 kPa	1046.6 kg/m3
323.15 K, 32618 kPa	1046.6 kg/m3
323.15 K, 32660 kPa	1046.7 kg/m3
323.15 K, 32694 kPa	1046.6 kg/m3
323.15 K, 32737 kPa	1046.6 kg/m3
323.15 K, 32772 kPa	1046.7 kg/m3
323.15 K, 32808 kPa	1046.9 kg/m3
323.15 K, 32843 kPa	1046.6 kg/m3
323.15 K, 32886 kPa	1046.8 kg/m3
323.15 K, 32921 kPa	1046.8 kg/m3
323.15 K, 33152 kPa	1046.9 kg/m3
323.15 K, 33188 kPa	1047 kg/m3
323.15 K, 33232 kPa	1046.9 kg/m3
323.15 K, 33268 kPa	1047 kg/m3
323.15 K, 33305 kPa	1046.9 kg/m3
323.15 K, 33386 kPa	1047 kg/m3
323.15 K, 33430 kPa	1047.1 kg/m3
323.15 K, 33468 kPa	1047.2 kg/m3
323.15 K, 33504 kPa	1047.1 kg/m3
323.15 K, 33549 kPa	1047.2 kg/m3
323.15 K, 33587 kPa	1047.2 kg/m3
323.15 K, 33625 kPa	1047.2 kg/m3
323.15 K, 33664 kPa	1047.2 kg/m3
323.15 K, 33690 kPa	1047.2 kg/m3
323.15 K, 33710 kPa	1047.3 kg/m3
323.15 K, 33750 kPa	1047.2 kg/m3
323.15 K, 33797 kPa	1047.3 kg/m3
323.15 K, 33837 kPa	1047.4 kg/m3
323.15 K, 34013 kPa	1047.4 kg/m3
323.15 K, 34067 kPa	1047.4 kg/m3
323.15 K, 34113 kPa	1047.7 kg/m3
323.15 K, 34161 kPa	1047.5 kg/m3
323.15 K, 34221 kPa	1047.5 kg/m3
323.15 K, 34272 kPa	1047.7 kg/m3
323.15 K, 34276 kPa	1047.6 kg/m3
323.15 K, 34313 kPa	1047.6 kg/m3
323.15 K, 34342 kPa	1047.6 kg/m3
323.15 K, 34379 kPa	1047.7 kg/m3
323.15 K, 34410 kPa	1047.7 kg/m3
323.15 K, 34436 kPa	1047.7 kg/m3
323.15 K, 34450 kPa	1047.8 kg/m3
323.15 K, 34468 kPa	1047.9 kg/m3
323.15 K, 34568 kPa	1047.8 kg/m3
323.15 K, 34570 kPa	1047.8 kg/m3 and 1047.9 kg/m3
323.15 K, 34571 kPa	1047.7 kg/m3
323.15 K, 34572 kPa	1047.7 kg/m3 and 1047.9 kg/m3 and 1047.8 kg/m3
343.13 K, 2755.8 kPa	1010.1 kg/m3
343.13 K, 2840 kPa	1010.2 kg/m3
343.13 K, 4339.6 kPa	1011.5 kg/m3
343.14 K, 104.4 kPa	1008.1 kg/m3
343.14 K, 105.3 kPa	1008.1 kg/m3
343.14 K, 105.8 kPa	1008.1 kg/m3
343.14 K, 106.3 kPa	1008.1 kg/m3
343.14 K, 107.5 kPa	1008.2 kg/m3
343.14 K, 108.6 kPa	1008.2 kg/m3
343.14 K, 110.3 kPa	1008.1 kg/m3
343.14 K, 112.9 kPa	1008.2 kg/m3
343.14 K, 116.2 kPa	1008.1 kg/m3
343.14 K, 121.8 kPa	1008.1 kg/m3
343.14 K, 129.6 kPa	1008.1 kg/m3
343.14 K, 141.1 kPa	1008.3 kg/m3
343.14 K, 155.9 kPa	1008.2 kg/m3
343.14 K, 167 kPa	1008.1 kg/m3
343.14 K, 181.6 kPa	1008.1 kg/m3
343.14 K, 200 kPa	1008.2 kg/m3
343.14 K, 216 kPa	1008.1 kg/m3
343.14 K, 226.6 kPa	1008.2 kg/m3
343.14 K, 238.6 kPa	1008.3 kg/m3
343.14 K, 252.1 kPa	1008.2 kg/m3
343.14 K, 267.4 kPa	1008.2 kg/m3
343.14 K, 284.6 kPa	1008.3 kg/m3
343.14 K, 304.8 kPa	1008.3 kg/m3
343.14 K, 328.1 kPa	1008.2 kg/m3
343.14 K, 354.2 kPa	1008.2 kg/m3
343.14 K, 383.4 kPa	1008.3 kg/m3
343.14 K, 404.4 kPa	1008.4 kg/m3
343.14 K, 419.5 kPa	1008.4 kg/m3
343.14 K, 436.2 kPa	1008.5 kg/m3
343.14 K, 541.8 kPa	1008.4 kg/m3
343.14 K, 568.7 kPa	1008.5 kg/m3
343.14 K, 598.4 kPa	1008.6 kg/m3
343.14 K, 626.6 kPa	1008.5 kg/m3
343.14 K, 662.6 kPa	1008.4 kg/m3
343.14 K, 698.7 kPa	1008.5 kg/m3
343.14 K, 717.3 kPa	1008.6 kg/m3
343.14 K, 736.7 kPa	1008.6 kg/m3
343.14 K, 752.7 kPa	1008.6 kg/m3
